Test results reported in ChEMBL document CHEMBL2034959, “Hesperetin upregulates ABCA1 expression and promotes cholesterol efflux from THP-1 macrophages” (J Nat Prod, 2012).
Activity calls are given as the source filed them. The calls are words filed in the database; no cut-off is given here.

Key:
Format in all cases: cell-based
[1] = biological target: T1, Oxysterols receptor LXR-alpha (Homo sapiens) (UniProt Q13133); assay: Increase in LXRalpha-mediated ABCA1 mRNA expression in human THP1 cells at 5 to 15 uM after 24 hrs by RT-PCR analysis; conditions: THP-1
T1 sequence (whole entry): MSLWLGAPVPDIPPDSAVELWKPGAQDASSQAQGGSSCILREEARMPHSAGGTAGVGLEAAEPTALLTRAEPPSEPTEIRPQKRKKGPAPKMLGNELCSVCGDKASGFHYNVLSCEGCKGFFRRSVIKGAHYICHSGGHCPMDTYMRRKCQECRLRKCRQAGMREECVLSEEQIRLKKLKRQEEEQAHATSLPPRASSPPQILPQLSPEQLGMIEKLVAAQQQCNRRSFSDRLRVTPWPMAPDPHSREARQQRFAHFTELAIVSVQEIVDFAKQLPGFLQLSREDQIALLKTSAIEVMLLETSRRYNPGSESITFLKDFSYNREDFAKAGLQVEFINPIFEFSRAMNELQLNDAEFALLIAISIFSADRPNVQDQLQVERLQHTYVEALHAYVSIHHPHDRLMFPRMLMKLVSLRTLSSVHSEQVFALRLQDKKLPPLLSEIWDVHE

[2] = biological target: T1, Oxysterols receptor LXR-alpha (Homo sapiens); assay: Induction of LXRalpha enhancer activity in human THP1 cells after 24 hrs by luciferase reporter gene analysis; conditions: THP-1
[3] = test system: THP-1; assay: Cytotoxicity against human THP1 cells up to 100 uM after 24 hrs by WST8 assay; conditions: thp-1, 24 h
[4] = biological target: T2, Peroxisome proliferator-activated receptor gamma (Homo sapiens) (UniProt P37231); assay: Induction of PPARgamma enhancer activity in human THP1 cells after 24 hrs by luciferase reporter gene analysis; conditions: THP-1
T2 sequence (whole entry): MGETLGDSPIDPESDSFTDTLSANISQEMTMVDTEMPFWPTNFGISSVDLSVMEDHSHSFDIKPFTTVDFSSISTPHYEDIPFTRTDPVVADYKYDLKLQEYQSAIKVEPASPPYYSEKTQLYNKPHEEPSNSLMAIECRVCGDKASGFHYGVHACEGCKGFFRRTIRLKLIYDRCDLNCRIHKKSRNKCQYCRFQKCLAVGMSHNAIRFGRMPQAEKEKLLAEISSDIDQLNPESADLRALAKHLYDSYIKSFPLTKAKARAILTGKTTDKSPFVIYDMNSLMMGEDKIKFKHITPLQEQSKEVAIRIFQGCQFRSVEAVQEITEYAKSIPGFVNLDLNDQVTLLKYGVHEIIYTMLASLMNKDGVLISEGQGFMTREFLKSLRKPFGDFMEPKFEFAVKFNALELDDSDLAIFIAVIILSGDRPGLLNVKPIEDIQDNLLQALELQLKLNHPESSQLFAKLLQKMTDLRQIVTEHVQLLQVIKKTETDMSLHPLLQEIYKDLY

[5] = biological target: T2, Peroxisome proliferator-activated receptor gamma (Homo sapiens); assay: Induction of PPARgamma-mediated ABCA1 promoter activity in human THP1 cells after 24 hrs by luciferase reporter gene analysis; conditions: THP-1
[6] = biological target: T1, Oxysterols receptor LXR-alpha (Homo sapiens); assay: Induction of LXRalpha-mediated ABCA1 promoter activity in human THP1 cells after 24 hrs by luciferase reporter gene analysis; conditions: THP-1
[7] = biological target: T1, Oxysterols receptor LXR-alpha (Homo sapiens); assay: Increase in LXRalpha-mediated ABCA1 protein expression in human THP1 cells at 5 to 15 uM after 48 hrs by Western blotting analysis; conditions: THP-1

- Activity [1]: Active
- Activity [2]: Dose-dependent effect
- Activity [4]: Dose-dependent effect
- Activity [5]: Active
- Activity [6]: Active
- Activity [7]: Active
Compound: COc1ccc([C@@H]2CC(=O)c3c(O)cc(O)cc3O2)cc1O [HESPERETIN]
- Activity [3]: Non-toxic
